Source: paper PMC7843569, “Metagenomic identification, purification and characterisation of the Bifidobacterium adolescentis BgaC β-galactosidase” (Applied Microbiology and Biotechnology, 2021)

Assays:
[1] = molecular target: T1, BgaC β-galactosidase (BAD_1582) (Bifidobacterium adolescentis, UniProt A1A3T0); assay: purified enzyme hydrolysis, specific activity, absorbance at […] nm; TLC; format: biochemical
[2] = molecular target: T1, BgaC β-galactosidase (BAD_1582); assay: purified enzyme; glucose-release kinetics (Km […]) and competitive inhibition of ONPG hydrolysis; format: biochemical
purified protein = substrate: O=[N+]([O-])c1ccccc1O[C@@H]1O[C@H](CO)[C@H](O)[C@H](O)[C@H]1O; assay: purified protein; settings: divalent metal ion (Mg2+ gives maximum activity) enzyme active site

For O=[N+]([O-])c1ccc(O[C@@H]2O[C@H](CO)[C@H](O)[C@H](O)[C@H]2O)cc1 [pNPG], which “purified enzyme hydrolysis, specific activity, absorbance at 420 nm; TLC” value [1] is on record?
Its value is 112 µmol/min/mg.

OC[C@H]1O[C@@H](O[C@H]2[C@H](O)[C@@H](O)C(O)O[C@@H]2CO)[C@H](O)[C@@H](O)[C@H]1O (stereo partly drawn) [lactose] was tested. Which Ki [2] did it give?
Its Ki is 100 µM.

B1: BgaC β-galactosidase (BAD_1582) (Bifidobacterium adolescentis ATCC 15703) (protein)
chain: MADTAELAIVHATTASASWLTDPTVFAANRKPAHSSHRYVIGETREPKQSLDGEWKVRIEQARNVDVESAPFAAVDFEDGDFGAIEVPGHLQMAGYLKNKYVNIQYPWDGHEDPQAPNIPENNHVAIYRRRFALDAQLARTLENDGTVSLTFHGAATAIYVWLDGTFVGYGEDGFTPSEFDVTEALRNGNGNAADSPEAEHTLTVACYEYSSASWLEDQDFWRLHGLFRTVELAAQPHTHVETVQLEADYTAADTAGTADTAELNAALTLRNPADAMTIESTLRDGDGNVVWESTQACNGEIALNSGKMTNIAPWSAESPTLYTLTVRVVGHDGAIIETVTQKIGFRTFRIENGIMTINGKRIVFKGADRHEFDAKRGRAITREDMLSDVVFCKRHNINAIRTSHYPNQEYWYDLCDEYGLYLIDETNMETHGTWVANNVERPEDGIPGSRPEWEGACVDRINSMMRRDYNHPSVLIWSLGNESSAGEVFRAMYRHAHTIDPNRPVHYEGSVHMREFEDVTDIESRMYAHADEIERYLNDGSPAHTDGPKKPYISCEYMHAMGNSCGNMDEYTALERYPMYQGGFIWDFIDQAIETKLPDGTTRMCYGGDFGDRPSDYEFSGDGLLFADRTPSPKAQEVKQLYANVKIAVSVDEARITNDNLFVSTGDYRFVLRILADGKPVWSTTRRFDVAAGESASFEVDWPVDDYRSNAEELVLEVSQQLGNACDWAPAGYELAFGQCVVAGAKTTADAVDAAGAPADGTVTLGRWNAGVRGQGREALFSRTQGGMVSYTFGEREFVLRRPSITTFRPLTDNDRGAGHAFERAAWAVAGKYARCVDCAIANRGENAVEATYTYELAIPQRTKVTVRYVADTAGLVSLDVEYPGEKNGDLPTIPAFGIEWALPVEYANLRFYGAGPEETYADRRHAKLGVWSTTAGDDCAPYLLPQETGNHEDVRWAEITDDSGHGVRVKRGAGAKPFAMSLLPYSSTMLEEALHQDELPKPRHMFLRLLAAQMGVGGDDSWMSPVHEQYQLPADQPLSLNVQLKLF
Which Km (purified protein) does the source give for B1 here?
The Km was 2500 µM.
